Reference: ChEMBL document CHEMBL4507291 (2021)

How the values were obtained:
[1] = molecular target: T1, Tyrosine-protein kinase TXK (Homo sapiens) (UniProt P42681); assay: TXK Kinase screen; conditions: Compound concentration 1.0 uM
T1 sequence (whole entry): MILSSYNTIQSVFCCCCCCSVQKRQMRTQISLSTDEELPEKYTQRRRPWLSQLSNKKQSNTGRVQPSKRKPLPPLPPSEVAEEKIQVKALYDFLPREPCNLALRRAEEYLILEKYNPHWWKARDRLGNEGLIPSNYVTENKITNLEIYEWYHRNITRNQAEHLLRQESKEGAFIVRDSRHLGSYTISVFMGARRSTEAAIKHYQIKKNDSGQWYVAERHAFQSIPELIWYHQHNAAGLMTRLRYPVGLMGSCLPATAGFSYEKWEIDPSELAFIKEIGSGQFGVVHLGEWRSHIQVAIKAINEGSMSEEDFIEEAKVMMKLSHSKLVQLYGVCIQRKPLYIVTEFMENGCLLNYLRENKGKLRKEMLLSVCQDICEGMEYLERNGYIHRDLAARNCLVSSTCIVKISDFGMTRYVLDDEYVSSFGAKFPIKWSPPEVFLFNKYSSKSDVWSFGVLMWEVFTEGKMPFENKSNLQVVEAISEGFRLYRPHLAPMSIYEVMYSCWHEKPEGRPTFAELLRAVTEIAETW

[2] = molecular target: Serine/threonine-protein kinase PAK 2 (Homo sapiens) (UniProt Q13177); assay: PAK2 (PAK65) Kinase screen; conditions: Compound concentration 1.0 uM
[3] = molecular target: Serine/threonine-protein kinase pim-2 (Homo sapiens) (UniProt Q9P1W9); assay: PIM2 Kinase screen; conditions: Compound concentration 1.0 uM
[4] = molecular target: Dual specificity protein kinase CLK3 (Homo sapiens) (UniProt P49761); assay: CLK3 Kinase screen; conditions: Compound concentration 1.0 uM
[5] = molecular target: Serine/threonine-protein kinase PLK1 (Homo sapiens) (UniProt P53350); assay: PLK1 Kinase screen; conditions: Compound concentration 1.0 uM
[6] = molecular target: LIM domain kinase 2 (Homo sapiens) (UniProt P53671); assay: LIMK2 Kinase screen; conditions: Compound concentration 1.0 uM
[7] = molecular target: Serine/threonine-protein kinase Chk2 (Homo sapiens) (UniProt O96017); assay: CHEK2 (CHK2) Kinase screen; conditions: Compound concentration 1.0 uM
[8] = system: T2, Receptor-type tyrosine-protein kinase FLT3 (Homo sapiens), P36888 [D835Y]; assay: FLT3 D835Y Kinase screen; conditions: Compound concentration 1.0 uM
T2 sequence (whole entry): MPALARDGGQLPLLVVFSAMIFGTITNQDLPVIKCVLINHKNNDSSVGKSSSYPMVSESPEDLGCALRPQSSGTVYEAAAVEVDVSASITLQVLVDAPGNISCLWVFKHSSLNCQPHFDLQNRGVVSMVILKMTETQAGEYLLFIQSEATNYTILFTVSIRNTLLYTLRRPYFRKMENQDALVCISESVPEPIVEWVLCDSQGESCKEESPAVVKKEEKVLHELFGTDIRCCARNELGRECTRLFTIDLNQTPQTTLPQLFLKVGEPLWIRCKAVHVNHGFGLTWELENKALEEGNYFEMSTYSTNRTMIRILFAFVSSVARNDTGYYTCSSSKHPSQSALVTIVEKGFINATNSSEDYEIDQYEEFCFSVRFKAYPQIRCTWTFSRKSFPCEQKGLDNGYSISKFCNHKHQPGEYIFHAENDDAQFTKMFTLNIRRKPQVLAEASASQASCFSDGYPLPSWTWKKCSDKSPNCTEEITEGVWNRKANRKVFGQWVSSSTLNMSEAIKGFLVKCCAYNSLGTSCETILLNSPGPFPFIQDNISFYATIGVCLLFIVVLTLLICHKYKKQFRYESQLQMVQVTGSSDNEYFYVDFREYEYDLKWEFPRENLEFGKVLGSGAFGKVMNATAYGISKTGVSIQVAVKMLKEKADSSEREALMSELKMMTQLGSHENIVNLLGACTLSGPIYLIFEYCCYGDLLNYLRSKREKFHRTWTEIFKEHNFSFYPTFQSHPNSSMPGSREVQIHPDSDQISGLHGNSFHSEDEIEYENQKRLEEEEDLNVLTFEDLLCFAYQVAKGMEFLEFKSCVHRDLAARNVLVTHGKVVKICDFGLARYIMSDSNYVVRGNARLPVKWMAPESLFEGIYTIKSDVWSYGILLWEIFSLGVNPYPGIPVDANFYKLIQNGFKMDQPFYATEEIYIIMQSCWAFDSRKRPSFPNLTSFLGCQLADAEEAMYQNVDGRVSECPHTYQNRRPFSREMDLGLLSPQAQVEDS

[9] = molecular target: PI3-kinase p110-delta/p85-alpha (Homo sapiens) (UniProt P27986+O00329); assay: PIK3CD/PIK3R1 (p110 delta/p85 alpha) Kinase screen; format: protein-complex assay; conditions: Compound concentration 1.0 uM
[10] = molecular target: Leukocyte tyrosine kinase receptor (Homo sapiens) (UniProt P29376); assay: LTK (TYK1) Kinase screen; conditions: Compound concentration 1.0 uM
[11] = system: Mast/stem cell growth factor receptor Kit (Homo sapiens), P10721 [T670I]; assay: KIT T670I Kinase screen; conditions: Compound concentration 1.0 uM
[12] = molecular target: Endothelin-1 receptor (Homo sapiens) (UniProt P25101); conditions: Compound concentration 10.0 uM
[13] = molecular target: T3, Muscarinic acetylcholine receptor M4 (Homo sapiens) (UniProt P08173); conditions: Compound concentration 10.0 uM
T3 sequence (whole entry): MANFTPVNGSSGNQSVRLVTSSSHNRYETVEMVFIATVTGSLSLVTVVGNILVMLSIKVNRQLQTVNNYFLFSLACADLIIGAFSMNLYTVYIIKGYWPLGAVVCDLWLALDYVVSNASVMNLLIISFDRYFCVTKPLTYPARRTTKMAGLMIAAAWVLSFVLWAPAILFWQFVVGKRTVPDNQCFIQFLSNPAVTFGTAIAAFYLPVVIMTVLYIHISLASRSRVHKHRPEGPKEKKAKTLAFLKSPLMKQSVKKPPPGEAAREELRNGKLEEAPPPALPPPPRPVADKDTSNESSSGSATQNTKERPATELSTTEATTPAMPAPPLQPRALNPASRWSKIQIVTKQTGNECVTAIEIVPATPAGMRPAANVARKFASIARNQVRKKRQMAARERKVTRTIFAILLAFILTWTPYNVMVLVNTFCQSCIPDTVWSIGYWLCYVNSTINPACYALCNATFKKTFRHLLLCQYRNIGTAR

Measured: inhibition

Sequence of Serine/threonine-protein kinase PAK 2 (Homo sapiens) (Q13177 whole entry): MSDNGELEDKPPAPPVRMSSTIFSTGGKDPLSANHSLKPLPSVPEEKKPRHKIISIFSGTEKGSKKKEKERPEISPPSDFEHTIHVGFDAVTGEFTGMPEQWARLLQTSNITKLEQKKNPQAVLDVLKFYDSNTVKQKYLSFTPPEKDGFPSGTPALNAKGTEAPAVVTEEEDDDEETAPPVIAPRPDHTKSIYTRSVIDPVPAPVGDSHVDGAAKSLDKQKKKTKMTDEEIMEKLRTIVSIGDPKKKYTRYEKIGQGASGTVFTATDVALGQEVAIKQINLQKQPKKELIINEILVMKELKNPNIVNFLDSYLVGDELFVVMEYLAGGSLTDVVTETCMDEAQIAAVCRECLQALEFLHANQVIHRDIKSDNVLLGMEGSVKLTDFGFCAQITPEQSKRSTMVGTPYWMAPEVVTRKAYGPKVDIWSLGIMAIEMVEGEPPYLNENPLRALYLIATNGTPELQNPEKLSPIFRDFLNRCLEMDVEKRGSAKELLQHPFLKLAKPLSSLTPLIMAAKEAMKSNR
Sequence of LIM domain kinase 2 (Homo sapiens) (P53671 whole entry, looked up, the tested form may be a part): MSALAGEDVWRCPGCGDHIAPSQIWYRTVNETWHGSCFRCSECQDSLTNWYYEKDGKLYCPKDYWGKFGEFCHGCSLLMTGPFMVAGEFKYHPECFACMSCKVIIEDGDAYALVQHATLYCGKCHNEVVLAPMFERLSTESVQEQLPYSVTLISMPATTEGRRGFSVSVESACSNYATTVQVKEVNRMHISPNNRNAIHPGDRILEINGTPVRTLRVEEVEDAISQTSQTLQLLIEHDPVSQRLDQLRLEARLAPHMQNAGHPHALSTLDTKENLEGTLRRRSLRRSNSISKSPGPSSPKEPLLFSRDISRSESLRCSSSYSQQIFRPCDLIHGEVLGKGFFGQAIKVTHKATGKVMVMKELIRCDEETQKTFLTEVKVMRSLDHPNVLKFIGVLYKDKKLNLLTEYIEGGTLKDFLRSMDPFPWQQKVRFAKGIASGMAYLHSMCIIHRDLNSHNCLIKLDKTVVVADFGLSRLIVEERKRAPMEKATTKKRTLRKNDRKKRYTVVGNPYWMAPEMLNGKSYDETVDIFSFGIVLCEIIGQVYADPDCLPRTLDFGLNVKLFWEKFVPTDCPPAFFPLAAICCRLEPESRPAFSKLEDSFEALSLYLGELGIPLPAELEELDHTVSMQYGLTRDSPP
Sequence of Leukocyte tyrosine kinase receptor (Homo sapiens) (P29376 whole entry): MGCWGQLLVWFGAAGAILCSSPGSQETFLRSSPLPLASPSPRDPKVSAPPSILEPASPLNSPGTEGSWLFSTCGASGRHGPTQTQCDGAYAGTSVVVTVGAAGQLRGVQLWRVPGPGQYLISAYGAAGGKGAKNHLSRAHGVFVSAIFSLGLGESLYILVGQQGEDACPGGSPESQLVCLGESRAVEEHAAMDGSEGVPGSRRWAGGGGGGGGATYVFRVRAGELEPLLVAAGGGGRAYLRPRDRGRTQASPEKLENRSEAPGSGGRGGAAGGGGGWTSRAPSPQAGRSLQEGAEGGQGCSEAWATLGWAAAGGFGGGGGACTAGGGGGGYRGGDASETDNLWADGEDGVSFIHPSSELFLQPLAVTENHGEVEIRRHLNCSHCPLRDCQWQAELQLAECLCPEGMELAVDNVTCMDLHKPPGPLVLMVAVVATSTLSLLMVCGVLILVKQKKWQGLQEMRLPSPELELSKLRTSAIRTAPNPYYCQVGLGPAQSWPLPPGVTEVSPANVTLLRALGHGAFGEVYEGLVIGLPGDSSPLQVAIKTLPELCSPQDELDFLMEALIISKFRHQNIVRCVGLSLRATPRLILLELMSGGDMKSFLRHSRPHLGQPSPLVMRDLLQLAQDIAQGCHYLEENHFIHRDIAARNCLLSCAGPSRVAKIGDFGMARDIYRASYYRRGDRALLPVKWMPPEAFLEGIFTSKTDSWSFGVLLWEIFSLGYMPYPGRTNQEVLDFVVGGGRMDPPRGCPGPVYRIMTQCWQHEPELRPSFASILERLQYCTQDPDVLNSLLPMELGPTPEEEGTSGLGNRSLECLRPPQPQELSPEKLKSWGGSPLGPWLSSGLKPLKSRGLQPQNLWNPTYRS
Sequence of Mast/stem cell growth factor receptor Kit (Homo sapiens), P10721 [T670I] (P10721 whole entry T670I): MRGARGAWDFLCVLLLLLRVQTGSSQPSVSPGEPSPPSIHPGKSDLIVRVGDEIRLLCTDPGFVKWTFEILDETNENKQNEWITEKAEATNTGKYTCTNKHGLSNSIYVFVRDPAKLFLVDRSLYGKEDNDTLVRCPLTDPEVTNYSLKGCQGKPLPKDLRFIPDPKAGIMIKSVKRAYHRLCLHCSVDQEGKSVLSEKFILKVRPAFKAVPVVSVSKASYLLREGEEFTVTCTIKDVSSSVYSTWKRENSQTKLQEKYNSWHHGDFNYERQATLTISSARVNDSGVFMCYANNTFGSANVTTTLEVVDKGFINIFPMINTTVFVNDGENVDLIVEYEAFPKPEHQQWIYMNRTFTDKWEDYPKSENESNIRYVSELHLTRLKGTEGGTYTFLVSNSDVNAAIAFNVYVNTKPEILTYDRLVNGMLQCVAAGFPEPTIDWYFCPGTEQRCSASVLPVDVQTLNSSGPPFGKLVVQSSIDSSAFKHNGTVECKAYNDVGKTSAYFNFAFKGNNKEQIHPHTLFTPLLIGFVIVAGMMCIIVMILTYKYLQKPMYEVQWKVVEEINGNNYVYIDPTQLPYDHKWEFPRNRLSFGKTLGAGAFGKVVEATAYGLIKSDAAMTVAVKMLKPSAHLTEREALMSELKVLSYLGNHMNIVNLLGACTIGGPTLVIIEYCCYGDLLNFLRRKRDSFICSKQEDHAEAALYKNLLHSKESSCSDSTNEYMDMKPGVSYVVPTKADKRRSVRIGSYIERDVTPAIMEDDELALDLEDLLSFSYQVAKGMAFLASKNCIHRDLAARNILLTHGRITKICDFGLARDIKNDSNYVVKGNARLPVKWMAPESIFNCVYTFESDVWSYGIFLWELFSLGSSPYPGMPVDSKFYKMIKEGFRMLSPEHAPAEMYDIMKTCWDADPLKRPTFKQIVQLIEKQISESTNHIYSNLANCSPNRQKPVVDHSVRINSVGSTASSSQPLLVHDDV
Sequence of Serine/threonine-protein kinase PLK1 (Homo sapiens) (P53350 whole entry, the tested form may be a part): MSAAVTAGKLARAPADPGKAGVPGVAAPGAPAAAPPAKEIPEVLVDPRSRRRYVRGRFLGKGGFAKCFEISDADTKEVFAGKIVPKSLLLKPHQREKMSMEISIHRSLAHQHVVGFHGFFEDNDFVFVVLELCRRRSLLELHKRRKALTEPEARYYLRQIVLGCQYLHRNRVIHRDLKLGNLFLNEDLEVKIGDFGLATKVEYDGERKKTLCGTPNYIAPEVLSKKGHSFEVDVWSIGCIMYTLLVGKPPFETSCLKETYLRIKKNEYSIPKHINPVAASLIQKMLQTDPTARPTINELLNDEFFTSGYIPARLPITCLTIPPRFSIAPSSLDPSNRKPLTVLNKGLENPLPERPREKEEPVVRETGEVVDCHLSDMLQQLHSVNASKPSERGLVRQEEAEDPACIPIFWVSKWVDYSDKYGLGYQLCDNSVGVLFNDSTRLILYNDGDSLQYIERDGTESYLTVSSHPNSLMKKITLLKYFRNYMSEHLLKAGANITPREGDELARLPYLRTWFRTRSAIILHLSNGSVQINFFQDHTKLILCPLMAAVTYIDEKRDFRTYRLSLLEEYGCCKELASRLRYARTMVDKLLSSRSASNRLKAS
Sequence of Dual specificity protein kinase CLK3 (Homo sapiens) (P49761 whole entry, looked up): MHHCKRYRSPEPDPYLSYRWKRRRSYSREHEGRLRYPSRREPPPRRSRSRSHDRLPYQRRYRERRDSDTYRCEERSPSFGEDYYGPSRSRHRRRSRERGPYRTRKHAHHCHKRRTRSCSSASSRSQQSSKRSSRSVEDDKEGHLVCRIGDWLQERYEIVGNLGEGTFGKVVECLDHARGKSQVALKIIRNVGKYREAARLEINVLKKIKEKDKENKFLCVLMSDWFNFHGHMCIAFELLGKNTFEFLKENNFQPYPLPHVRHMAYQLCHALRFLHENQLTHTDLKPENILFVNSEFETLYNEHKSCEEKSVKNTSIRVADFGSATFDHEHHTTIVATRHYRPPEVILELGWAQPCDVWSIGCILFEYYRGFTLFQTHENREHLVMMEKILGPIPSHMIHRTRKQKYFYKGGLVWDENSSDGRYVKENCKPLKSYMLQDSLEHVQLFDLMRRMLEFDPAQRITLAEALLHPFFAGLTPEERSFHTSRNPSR
Sequence of Endothelin-1 receptor (Homo sapiens) (P25101 whole entry): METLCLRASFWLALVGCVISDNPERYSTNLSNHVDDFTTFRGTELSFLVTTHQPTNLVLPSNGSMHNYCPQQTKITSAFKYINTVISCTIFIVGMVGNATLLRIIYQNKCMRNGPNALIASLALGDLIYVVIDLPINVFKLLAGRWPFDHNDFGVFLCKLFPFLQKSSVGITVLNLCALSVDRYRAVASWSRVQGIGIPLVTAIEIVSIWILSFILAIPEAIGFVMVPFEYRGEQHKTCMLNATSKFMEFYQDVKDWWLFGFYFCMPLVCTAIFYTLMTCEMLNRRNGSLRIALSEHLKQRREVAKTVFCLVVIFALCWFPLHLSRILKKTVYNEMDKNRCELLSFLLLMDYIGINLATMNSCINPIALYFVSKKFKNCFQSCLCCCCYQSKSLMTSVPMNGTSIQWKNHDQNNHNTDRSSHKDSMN
Sequence of Serine/threonine-protein kinase pim-2 (Homo sapiens) (Q9P1W9 whole entry, looked up): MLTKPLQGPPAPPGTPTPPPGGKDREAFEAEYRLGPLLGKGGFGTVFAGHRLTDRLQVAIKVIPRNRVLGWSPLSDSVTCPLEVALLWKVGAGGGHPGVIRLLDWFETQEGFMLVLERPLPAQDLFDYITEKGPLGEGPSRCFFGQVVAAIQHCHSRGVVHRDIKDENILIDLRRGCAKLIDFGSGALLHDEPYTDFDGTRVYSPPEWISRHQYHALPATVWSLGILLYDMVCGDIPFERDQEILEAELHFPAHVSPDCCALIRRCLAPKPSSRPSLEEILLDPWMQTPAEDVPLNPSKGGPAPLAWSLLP

C[C@@H]1CN(c2cc(-c3n[nH]c4ccc(OC5(C)CC5)cc34)ncn2)C[C@H](C)O1 [MLi-2]
inactive: [1] 3.11% | [2] 8.73% | [3] -1.94% | [4] 8.93% | [5] 7.54% | [6] 0.642% | [7] 14.9% | [8] 9.6% | [9] 2.08% | [10] 42.4% | [11] -0.692% | [12] 23% | [13] 26%
